{"source": "ChEMBL document CHEMBL5390261", "about": "“Agents for the Treatment of Gout: Current Advances and Future Perspectives” (J Med Chem, 2023)", "key": {"[1]": {"target": "T1, Xanthine dehydrogenase/oxidase (Homo sapiens, UniProt P47989)", "T1 sequence (P47989 whole entry)": "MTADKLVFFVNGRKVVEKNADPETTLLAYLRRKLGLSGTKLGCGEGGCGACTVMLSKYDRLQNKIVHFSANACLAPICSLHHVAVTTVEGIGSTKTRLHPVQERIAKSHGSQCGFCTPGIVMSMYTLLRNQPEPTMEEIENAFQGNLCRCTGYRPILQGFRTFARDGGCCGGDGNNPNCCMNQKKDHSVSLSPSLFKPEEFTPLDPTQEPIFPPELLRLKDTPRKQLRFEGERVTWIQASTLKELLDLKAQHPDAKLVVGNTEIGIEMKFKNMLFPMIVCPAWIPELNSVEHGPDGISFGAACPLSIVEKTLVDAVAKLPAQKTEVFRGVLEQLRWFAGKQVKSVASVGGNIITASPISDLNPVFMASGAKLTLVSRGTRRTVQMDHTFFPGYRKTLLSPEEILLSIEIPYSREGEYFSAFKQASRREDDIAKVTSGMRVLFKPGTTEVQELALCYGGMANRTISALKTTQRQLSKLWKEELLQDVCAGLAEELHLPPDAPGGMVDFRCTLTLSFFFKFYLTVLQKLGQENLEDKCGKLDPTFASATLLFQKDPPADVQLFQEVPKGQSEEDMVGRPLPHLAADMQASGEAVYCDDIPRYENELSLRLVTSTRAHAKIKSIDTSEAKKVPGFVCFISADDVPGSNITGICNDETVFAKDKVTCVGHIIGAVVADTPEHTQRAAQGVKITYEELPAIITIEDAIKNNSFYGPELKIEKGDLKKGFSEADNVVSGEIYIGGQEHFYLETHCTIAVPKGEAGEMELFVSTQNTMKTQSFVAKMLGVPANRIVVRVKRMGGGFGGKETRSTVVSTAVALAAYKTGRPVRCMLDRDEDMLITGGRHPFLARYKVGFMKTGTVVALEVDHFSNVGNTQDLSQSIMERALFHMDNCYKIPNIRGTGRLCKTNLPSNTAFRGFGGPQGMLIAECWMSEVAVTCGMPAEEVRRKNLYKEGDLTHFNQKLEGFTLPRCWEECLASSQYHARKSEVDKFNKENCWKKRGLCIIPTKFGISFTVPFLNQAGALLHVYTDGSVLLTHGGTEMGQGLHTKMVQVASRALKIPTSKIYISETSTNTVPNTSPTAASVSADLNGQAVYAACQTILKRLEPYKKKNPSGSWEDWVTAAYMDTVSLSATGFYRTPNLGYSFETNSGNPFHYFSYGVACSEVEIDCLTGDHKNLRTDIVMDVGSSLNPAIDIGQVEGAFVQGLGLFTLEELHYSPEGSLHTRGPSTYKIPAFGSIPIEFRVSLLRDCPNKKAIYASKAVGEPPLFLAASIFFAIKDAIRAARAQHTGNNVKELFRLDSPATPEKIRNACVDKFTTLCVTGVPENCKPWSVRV", "experiment": "Inhibition of XO (unknown origin) using xanthine as substrate assessed as reduction in uric acid formation by double beam spectrophotometric analysis"}, "[2]": {"target": "T1, Xanthine dehydrogenase/oxidase", "experiment": "Inhibition of XO (unknown origin) by microtitre plate analysis"}, "[3]": {"target": "Xanthine dehydrogenase/oxidase (Bos taurus, UniProt P80457)", "sequence (P80457 whole entry)": "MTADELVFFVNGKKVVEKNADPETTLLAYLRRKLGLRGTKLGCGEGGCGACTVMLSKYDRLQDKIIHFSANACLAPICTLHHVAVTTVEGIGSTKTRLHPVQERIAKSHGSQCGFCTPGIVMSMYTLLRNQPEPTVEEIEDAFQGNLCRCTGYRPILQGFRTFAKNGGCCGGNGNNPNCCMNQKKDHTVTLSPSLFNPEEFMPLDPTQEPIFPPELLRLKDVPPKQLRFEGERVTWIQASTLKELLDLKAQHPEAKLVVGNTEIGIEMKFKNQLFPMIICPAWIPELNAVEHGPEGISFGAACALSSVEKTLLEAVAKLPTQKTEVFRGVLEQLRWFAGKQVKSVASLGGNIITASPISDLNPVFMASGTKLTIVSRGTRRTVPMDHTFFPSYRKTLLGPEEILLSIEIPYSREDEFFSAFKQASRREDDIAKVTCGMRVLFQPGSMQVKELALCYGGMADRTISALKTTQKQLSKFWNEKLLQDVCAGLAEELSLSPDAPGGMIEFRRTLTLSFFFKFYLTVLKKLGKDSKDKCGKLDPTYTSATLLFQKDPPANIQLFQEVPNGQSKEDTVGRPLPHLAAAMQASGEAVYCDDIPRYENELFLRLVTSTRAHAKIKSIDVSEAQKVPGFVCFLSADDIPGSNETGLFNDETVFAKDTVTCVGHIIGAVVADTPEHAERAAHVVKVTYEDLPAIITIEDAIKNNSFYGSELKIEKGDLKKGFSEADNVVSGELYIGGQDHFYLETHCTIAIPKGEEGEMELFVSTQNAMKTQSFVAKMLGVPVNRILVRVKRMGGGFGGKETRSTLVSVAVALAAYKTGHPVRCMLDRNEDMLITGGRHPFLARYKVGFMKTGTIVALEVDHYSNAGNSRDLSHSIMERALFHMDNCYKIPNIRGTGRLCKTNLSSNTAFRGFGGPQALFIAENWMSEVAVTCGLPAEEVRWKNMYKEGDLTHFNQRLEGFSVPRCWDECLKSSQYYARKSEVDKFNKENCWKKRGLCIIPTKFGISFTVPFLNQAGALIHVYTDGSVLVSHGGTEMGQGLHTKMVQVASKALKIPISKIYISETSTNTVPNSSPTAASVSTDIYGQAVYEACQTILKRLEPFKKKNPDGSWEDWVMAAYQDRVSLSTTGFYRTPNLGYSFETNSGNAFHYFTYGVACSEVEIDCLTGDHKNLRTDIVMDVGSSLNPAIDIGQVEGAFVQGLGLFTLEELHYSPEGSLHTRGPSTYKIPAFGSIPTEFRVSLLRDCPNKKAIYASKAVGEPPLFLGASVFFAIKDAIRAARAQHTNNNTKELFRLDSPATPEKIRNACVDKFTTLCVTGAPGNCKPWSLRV", "experiment": "Inhibition of Bovine milk xanthine oxidase using xanthine as substrate assessed as decrease in uric acid level preincubated for 5 mins followed by substrate addition by spectrophotometric analysis"}, "[4]": {"target": "T1, Xanthine dehydrogenase/oxidase", "experiment": "Inhibition of XO (unknown origin) using xanthine as substrate preincubated for 3 hrs followed by substrate addition by UV-Vis spectrophotometric analysis"}, "[5]": {"target": "T1, Xanthine dehydrogenase/oxidase", "experiment": "Inhibition of XO (unknown origin)"}, "[6]": {"target": "T1, Xanthine dehydrogenase/oxidase", "experiment": "Inhibition of XO (unknown origin) using xanthine as substrate assessed as reduction in uric acid formation by FluoSTAR OPTIMA plate reader analysis"}}, "data": [{"smiles": "O=c1oc2c(O)ccc(-c3oc4cc(O)cc(O)c4c(=O)c3O)c2s1", "values": [{"measurement": "IC50", "setting": "[1]", "value": 50, "unit": "nM"}]}, {"smiles": "COc1cc(O)cc2c(=O)oc(O)c(C)c12", "values": [{"measurement": "IC50", "setting": "[2]", "value": 2970, "unit": "nM"}]}, {"smiles": "O=c1oc2ccccc2c2c1C(c1cccs1)C=C(c1ccccc1)O2", "note": "(configuration not stated)", "values": [{"measurement": "IC50", "setting": "[3]", "value": 2210, "unit": "nM"}]}, {"smiles": "O=c1cc(-c2ccccc2)oc2cc(O)cc(O)c12", "note": "[CHRYSIN]", "values": [{"measurement": "IC50", "setting": "[4]", "value": 1260, "unit": "nM"}]}, {"smiles": "O=c1ccc2cc(O)c(O)cc2o1", "note": "[ESCULETIN]", "values": [{"measurement": "IC50", "setting": "[2]", "value": 42000, "unit": "nM"}]}, {"smiles": "O=c1c(-c2ccc(O)cc2)coc2cc(O)cc(O)c12", "note": "[GENISTEIN]", "values": [{"measurement": "IC50", "setting": "[5]", "value": 3530, "unit": "nM"}]}, {"smiles": "COc1ccc([C@@H]2CC(=O)c3c(O)cc(O)cc3O2)cc1O", "note": "[HESPERETIN]", "values": [{"measurement": "IC50", "setting": "[6]", "value": 840, "unit": "nM"}]}]}
